Experiments:
Experiment in all cases: relative viability (nuclei count vs DMSO), 5 days (fraction); higher = more cells survive
LXF-289 = system: LXF-289
Outline: (§1)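 Medians of duplicate plates are given as relative viability. That measure is the nuclei count in treated wells divided by the count in vehicle wells. Counts were taken on 4× images of lung cancer cell lines in 1536-well plates, 5 days after pin-tool dosing the day after seeding with one drug alone or a fixed anchor-drug dose plus five library-drug doses (not always all listed) in √10 steps.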

ABC-1 = system: ABC-1
Outline: as §1

NCI-H1993 = system: NCI-H1993
Outline: as §1

HOP-62 = system: HOP-62
Outline: as §1

NCI-H522 = system: NCI-H522
Outline: as §1

LK-2 = system: LK-2
Outline: as §1

NCI-H322M = system: NCI-H322M
Outline: as §1

NCI-H1944 = system: NCI-H1944
Outline: as §1

EMC-BAC-2 = system: EMC-BAC-2
Outline: as §1

SW 900 = system: SW 900
Outline: as §1

NCI-H2009 = system: NCI-H2009
Outline: as §1

NCI-H2170 = system: NCI-H2170
Outline: as §1

SW 1573 = system: SW 1573
Outline: as §1

SK-MES-1 = system: SK-MES-1
Outline: as §1

PC-3 [JPC-3] = system: PC-3 [JPC-3]
Outline: as §1

HARA = system: HARA
Outline: as §1

A-427 = system: A-427
Outline: as §1

NCI-H727 = system: NCI-H727
Outline: as §1

NCI-H3122 = system: NCI-H3122
Outline: as §1

NCI-H596 = system: NCI-H596
Outline: as §1

NCI-H2228 = system: NCI-H2228
Outline: as §1

Structure (SMILES): Nc1ccn([C@@H]2O[C@H](CO)[C@@H](O)[C@@H]2O)c(=O)n1 [Cytarabine] + Cc1cc(Nc2cc(N3CCN(C)CC3)nc(Sc3ccc(NC(=O)C4CC4)cc3)n2)n[nH]1 [Tozasertib] (partner 0.1 µM)
- relative viability (LXF-289; first compound 0.005 µM): 0.244
- relative viability (LXF-289; first compound 0.01581 µM): 0.182
- relative viability (LXF-289; first compound 0.05 µM): 0.13
- relative viability (LXF-289; first compound 0.1581 µM): 0.0999
- relative viability (LXF-289; first compound 0.5 µM): 0.0753
- relative viability (ABC-1; first compound 0.005 µM): 0.209
- relative viability (ABC-1; first compound 0.01581 µM): 0.176
- relative viability (ABC-1; first compound 0.05 µM): 0.174
- relative viability (ABC-1; first compound 0.1581 µM): 0.154
- relative viability (ABC-1; first compound 0.5 µM): 0.183
- relative viability (NCI-H1993; first compound 0.005 µM): 0.631
- relative viability (NCI-H1993; first compound 0.01581 µM): 0.633
- relative viability (NCI-H1993; first compound 0.05 µM): 0.681
- relative viability (NCI-H1993; first compound 0.1581 µM): 0.534
- relative viability (NCI-H1993; first compound 0.5 µM): 0.564
- relative viability (HOP-62; first compound 0.005 µM): 0.251
- relative viability (HOP-62; first compound 0.01581 µM): 0.259
- relative viability (HOP-62; first compound 0.05 µM): 0.282
- relative viability (HOP-62; first compound 0.5 µM): 0.0966
- relative viability (NCI-H522; first compound 0.005 µM): 0.556
- relative viability (NCI-H522; first compound 0.01581 µM): 0.5
- relative viability (NCI-H522; first compound 0.05 µM): 0.476
- relative viability (NCI-H522; first compound 0.1581 µM): 0.482
- relative viability (NCI-H522; first compound 0.5 µM): 0.572
- relative viability (LK-2; first compound 0.005 µM): 0.213
- relative viability (LK-2; first compound 0.01581 µM): 0.185
- relative viability (LK-2; first compound 0.05 µM): 0.168
- relative viability (LK-2; first compound 0.1581 µM): 0.157
- relative viability (LK-2; first compound 0.5 µM): 0.215
- relative viability (NCI-H322M; first compound 0.005 µM): 0.454
- relative viability (NCI-H322M; first compound 0.01581 µM): 0.416
- relative viability (NCI-H322M; first compound 0.05 µM): 0.432
- relative viability (NCI-H322M; first compound 0.1581 µM): 0.364
- relative viability (NCI-H322M; first compound 0.5 µM): 0.303
- relative viability (NCI-H1944; first compound 0.005 µM): 0.211
- relative viability (NCI-H1944; first compound 0.01581 µM): 0.195
- relative viability (NCI-H1944; first compound 0.05 µM): 0.184
- relative viability (NCI-H1944; first compound 0.1581 µM): 0.149
- relative viability (NCI-H1944; first compound 0.5 µM): 0.114
- relative viability (EMC-BAC-2; first compound 0.005 µM): 0.302
- relative viability (EMC-BAC-2; first compound 0.01581 µM): 0.288
- relative viability (EMC-BAC-2; first compound 0.05 µM): 0.242
- relative viability (EMC-BAC-2; first compound 0.1581 µM): 0.233
- relative viability (EMC-BAC-2; first compound 0.5 µM): 0.168
- relative viability (SW 900; first compound 0.005 µM): 0.555
- relative viability (SW 900; first compound 0.01581 µM): 0.402
- relative viability (SW 900; first compound 0.05 µM): 0.287
- relative viability (SW 900; first compound 0.1581 µM): 0.233
- relative viability (SW 900; first compound 0.5 µM): 0.134
- relative viability (NCI-H2009; first compound 0.005 µM): 0.685
- relative viability (NCI-H2009; first compound 0.01581 µM): 0.795
- relative viability (NCI-H2009; first compound 0.05 µM): 0.786
- relative viability (NCI-H2009; first compound 0.1581 µM): 0.566
- relative viability (NCI-H2009; first compound 0.5 µM): 0.308
- relative viability (NCI-H2170; first compound 0.005 µM): 0.605
- relative viability (NCI-H2170; first compound 0.01581 µM): 0.5
- relative viability (NCI-H2170; first compound 0.05 µM): 0.409
- relative viability (NCI-H2170; first compound 0.1581 µM): 0.386
- relative viability (NCI-H2170; first compound 0.5 µM): 0.26
- relative viability (SW 1573; first compound 0.005 µM): 0.184
- relative viability (SW 1573; first compound 0.01581 µM): 0.161
- relative viability (SW 1573; first compound 0.05 µM): 0.128
- relative viability (SW 1573; first compound 0.1581 µM): 0.169
- relative viability (SW 1573; first compound 0.5 µM): 0.101
- relative viability (SK-MES-1; first compound 0.005 µM): 0.583
- relative viability (SK-MES-1; first compound 0.01581 µM): 0.483
- relative viability (SK-MES-1; first compound 0.05 µM): 0.28
- relative viability (SK-MES-1; first compound 0.1581 µM): 0.179
- relative viability (SK-MES-1; first compound 0.5 µM): 0.159
- relative viability (PC-3 [JPC-3]; first compound 0.005 µM): 0.726
- relative viability (PC-3 [JPC-3]; first compound 0.01581 µM): 0.826
- relative viability (PC-3 [JPC-3]; first compound 0.05 µM): 0.966
- relative viability (PC-3 [JPC-3]; first compound 0.1581 µM): 0.704
- relative viability (PC-3 [JPC-3]; first compound 0.5 µM): 0.665
- relative viability (HARA; first compound 0.005 µM): 0.102
- relative viability (HARA; first compound 0.01581 µM): 0.102
- relative viability (HARA; first compound 0.05 µM): 0.0829
- relative viability (HARA; first compound 0.1581 µM): 0.0658
- relative viability (HARA; first compound 0.5 µM): 0.0703
- relative viability (A-427; first compound 0.005 µM): 0.232
- relative viability (A-427; first compound 0.01581 µM): 0.212
- relative viability (A-427; first compound 0.05 µM): 0.163
- relative viability (A-427; first compound 0.1581 µM): 0.161
- relative viability (A-427; first compound 0.5 µM): 0.149
- relative viability (NCI-H727; first compound 0.005 µM): 0.574
- relative viability (NCI-H727; first compound 0.01581 µM): 0.386
- relative viability (NCI-H727; first compound 0.05 µM): 0.476
- relative viability (NCI-H727; first compound 0.1581 µM): 0.4
- relative viability (NCI-H727; first compound 0.5 µM): 0.463
- relative viability (NCI-H3122; first compound 0.005 µM): 0.389
- relative viability (NCI-H3122; first compound 0.01581 µM): 0.407
- relative viability (NCI-H3122; first compound 0.05 µM): 0.299
- relative viability (NCI-H3122; first compound 0.1581 µM): 0.237
- relative viability (NCI-H3122; first compound 0.5 µM): 0.161
- relative viability (NCI-H596; first compound 0.005 µM): 1.03
- relative viability (NCI-H596; first compound 0.01581 µM): 0.945
- relative viability (NCI-H596; first compound 0.05 µM): 0.712
- relative viability (NCI-H596; first compound 0.1581 µM): 0.589
- relative viability (NCI-H596; first compound 0.5 µM): 0.469
- relative viability (NCI-H2228; first compound 0.005 µM): 0.144
- relative viability (NCI-H2228; first compound 0.01581 µM): 0.204
- relative viability (NCI-H2228; first compound 0.05 µM): 0.207
- relative viability (NCI-H2228; first compound 0.1581 µM): 0.0929
- relative viability (NCI-H2228; first compound 0.5 µM): 0.105

— the supplement of paper PMC10307832
